Measurements from BindingDB's records for doi:10.1021/jm00384a019 (1987).
pKi: −log10 of the molar value.

These compounds were tested against DNA polymerase alpha (Cricetulus griseus) (assay: Compound was evaluated for the concentration which gives half-maximal inhibition of Chinese Hamster Ovary DNA polymerase alpha).
`CCCCc1ccc(Nc2nc(SC)c3[nH]cnc3n2)cc1` [(4-Butyl-phenyl)-(6-methylsulfanyl-9H-purin-2-yl)-amine] showed a pKi of 6.00. In the case of `CCCCc1ccc(Nc2ncc3[nH]cnc3n2)cc1` [(4-Butyl-phenyl)-(9H-purin-2-yl)-amine], the pKi was 5.30. `CCCCc1ccc(Nc2nc(OC)c3[nH]cnc3n2)cc1` [(4-Butyl-phenyl)-(6-methoxy-9H-purin-2-yl)-amine] gave a pKi of 5.85. `CCCCc1ccc(Nc2nc(N)c3[nH]cnc3n2)cc1` [N*2*-(4-Butyl-phenyl)-9H-purine-2,6-diamine] showed a pKi of 4.84. `CCCCc1ccc(Nc2nc(Cl)c3[nH]cnc3n2)cc1` [(4-Butyl-phenyl)-(6-chloro-9H-purin-2-yl)-amine] gave a pKi of 5.59.
